Experimental data published in PMC9316543, “Characterization, Expression Profiling, and Biochemical Analyses of the Cinnamoyl-CoA Reductase Gene Family for Lignin Synthesis in Alfalfa Plants” (International Journal of Molecular Sciences, 2022).
Read-outs that look alike come from different tables or passages of the source. Each block holds one compound with its values, some of them ahead of it.

Legend:
MsCCR-like1 = test system: T1, MsCCR-like1; assay: NADPH oxidation, decrease of A366; assay type: biochemical, Medicago sativa; settings: NADPH 160 μM, 1x PBS, substrate 30-150 μM
T1 construct: His-tagged, pET-28a, E. coli BL21, Ni-NTA; tag removal not mentioned
Excerpt: NADPH oxidation, decrease of A366 on MsCCR-like1

MsCCR1 = test system: T2, MsCCR1; assay: NADPH oxidation, decrease of A366; assay type: biochemical, Medicago sativa; settings: NADPH 160 μM, 1x PBS, substrate 30-150 μM
T2 construct: gene CCR1; His-tagged, pET-28a, E. coli BL21, Ni-NTA; tag removal not mentioned
Excerpt: NADPH oxidation, decrease of A366 on MsCCR1

[1] = read-out: p-Coumaroyl-CoA / K m

Km (MsCCR-like1; read-out: Caffeoyl-CoA / K m): 48.2 ± 1.75 µM
SMILES: CC(C)(COP(=O)(O)OP(=O)(O)OC[C@H]1O[C@@H](n2cnc3c(N)ncnc32)[C@H](O)[C@@H]1OP(=O)(O)O)[C@@H](O)C(=O)NCCC(=O)NCCSC(=O)/C=C/c1ccc(O)c(O)c1 [Caffeoyl-CoA]

Km (MsCCR1; read-out: Feruloyl-CoA / K m): 45.2 ± 11.4 µM
SMILES: COc1cc(/C=C/C(=O)SCCNC(=O)CCNC(=O)[C@H](O)C(C)(C)COP(=O)(O)OP(=O)(O)OC[C@H]2O[C@@H](n3cnc4c(N)ncnc43)[C@H](O)[C@@H]2OP(=O)(O)O)ccc1O [Feruloyl-CoA]

Km (MsCCR1; read-out: Sinapoyl-CoA / K m): 10.6 ± 1.25 µM
SMILES: COc1cc(/C=C/C(=O)SCCNC(=O)CCNC(=O)[C@H](O)C(C)(C)COP(=O)(O)OP(=O)(O)OC[C@H]2O[C@@H](n3cnc4c(N)ncnc43)[C@H](O)[C@@H]2OP(=O)(O)O)cc(OC)c1O [Sinapoyl-CoA]

Km (MsCCR-like1; [1]): 44.1 ± 7.12 µM
Km (MsCCR1; [1]): 24.2 ± 4.51 µM
SMILES: CC(C)(COP(=O)(O)OP(=O)(O)OC[C@H]1O[C@@H](n2cnc3c(N)ncnc32)[C@H](O)[C@@H]1OP(=O)(O)O)[C@@H](O)C(=O)NCCC(=O)NCCSC(=O)/C=C/c1ccc(O)cc1 [p-Coumaroyl-CoA]
